Results on 20 molecules are retold here after patent US11453660B2, “Androgen receptor and glucocorticoid receptor modulators” (ONCOSTELLAE, S.L., priority 2017, dated 2022).

Test [1] has as its target T1, human androgen receptor (Homo sapiens, UniProt P10275, T878A).
T1 construct: endogenously expressed human androgen receptor using the LnCap prostate cancer cell line; endogenous in cells; host or cells: LNCaP prostate cancer cell line (whole cells)
T1 sequence (P10275 1-920 T878A): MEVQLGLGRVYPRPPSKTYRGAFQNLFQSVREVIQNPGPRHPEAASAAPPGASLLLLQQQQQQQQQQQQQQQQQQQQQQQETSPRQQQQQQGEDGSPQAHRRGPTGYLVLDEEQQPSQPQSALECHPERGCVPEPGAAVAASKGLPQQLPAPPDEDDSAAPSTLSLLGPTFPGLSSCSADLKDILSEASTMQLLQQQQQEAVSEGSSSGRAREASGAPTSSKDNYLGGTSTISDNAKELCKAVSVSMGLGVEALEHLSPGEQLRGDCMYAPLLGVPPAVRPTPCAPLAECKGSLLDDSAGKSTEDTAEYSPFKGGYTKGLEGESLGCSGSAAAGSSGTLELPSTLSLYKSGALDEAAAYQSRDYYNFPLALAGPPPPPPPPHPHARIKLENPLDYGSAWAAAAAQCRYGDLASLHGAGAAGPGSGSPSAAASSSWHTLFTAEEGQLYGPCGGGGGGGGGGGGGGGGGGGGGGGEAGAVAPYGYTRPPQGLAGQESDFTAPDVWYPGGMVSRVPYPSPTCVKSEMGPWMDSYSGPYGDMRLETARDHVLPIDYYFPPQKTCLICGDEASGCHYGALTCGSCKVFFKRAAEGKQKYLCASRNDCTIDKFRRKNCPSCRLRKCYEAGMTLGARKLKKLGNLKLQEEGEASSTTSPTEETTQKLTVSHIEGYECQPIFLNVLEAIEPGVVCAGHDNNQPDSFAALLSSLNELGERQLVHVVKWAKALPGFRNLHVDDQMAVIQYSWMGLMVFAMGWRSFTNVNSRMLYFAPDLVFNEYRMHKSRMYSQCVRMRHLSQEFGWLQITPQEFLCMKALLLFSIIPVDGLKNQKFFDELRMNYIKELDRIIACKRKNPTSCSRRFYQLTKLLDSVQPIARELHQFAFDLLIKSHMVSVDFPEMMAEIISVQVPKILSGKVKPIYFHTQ
Nature of the test: Human Androgen Receptor Binding (radioligand binding, LnCap prostate cancer cell line). The note with it: LnCap cells, displacement of [^3H]-methyltrienolone, 2 hours at 37° C.; read-out: AR LNCaP. The method in brief:
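Whole-cell displacement of [3H]-methyltrienolone from endogenous AR (T878A) in LnCap cells, in RPMI with 0.1% BSA and triamcinolone acetonide. Compounds 10 μM to 0.1 nM in 1:10 steps, 2 h at 37 °C; cells washed, SDS-lysed, bound radioactivity by scintillation counting for IC50.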

The target in test [2] is T2, Human Glucocorticoid Receptor (Homo sapiens, UniProt P04150).
T2 construct: endogenous in cells; host or cells: cytosol from IM-9 cell line
T2 sequence (P04150 1-777): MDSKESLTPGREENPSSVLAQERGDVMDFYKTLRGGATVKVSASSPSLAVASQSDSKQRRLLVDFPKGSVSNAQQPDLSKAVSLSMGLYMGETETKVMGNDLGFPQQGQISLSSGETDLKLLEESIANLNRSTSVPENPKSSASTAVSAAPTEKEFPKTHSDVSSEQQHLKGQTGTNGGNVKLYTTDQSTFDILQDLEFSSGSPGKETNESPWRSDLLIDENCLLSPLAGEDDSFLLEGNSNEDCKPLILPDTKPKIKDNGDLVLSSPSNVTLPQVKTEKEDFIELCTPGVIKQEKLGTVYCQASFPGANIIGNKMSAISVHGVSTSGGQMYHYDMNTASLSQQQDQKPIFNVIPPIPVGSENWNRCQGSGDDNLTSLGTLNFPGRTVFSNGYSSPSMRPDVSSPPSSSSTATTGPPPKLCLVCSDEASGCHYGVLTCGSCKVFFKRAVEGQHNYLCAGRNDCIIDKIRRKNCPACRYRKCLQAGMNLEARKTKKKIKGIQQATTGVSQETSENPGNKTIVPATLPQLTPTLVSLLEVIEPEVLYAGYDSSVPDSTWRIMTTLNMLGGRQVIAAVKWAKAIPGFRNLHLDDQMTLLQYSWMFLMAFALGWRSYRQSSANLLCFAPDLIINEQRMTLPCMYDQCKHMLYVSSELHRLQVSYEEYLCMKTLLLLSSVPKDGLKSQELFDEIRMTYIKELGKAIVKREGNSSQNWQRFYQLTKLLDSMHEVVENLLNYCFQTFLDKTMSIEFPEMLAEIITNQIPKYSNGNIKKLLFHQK
Nature of the test: Competition Binding in IM-9 Human Glucocorticoid Receptor (GR IM-9). The note with it: cytosol from IM-9 cell line, 1.5 nM [3H]-Dexamethasone, 4° C. for 6 hours. The method in brief: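 Radioligand competition using 100 μg IM-9 cell cytosol and 1.5 nM [3H]-dexamethasone, incubated 6 h at 4° C in TES/molybdate buffer, pH 7.4. Filtration on PEI-treated GF/B filters, scintillation counting; nonspecific binding defined with 10 μM triamcinolone.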

Molecules are shown by their SMILES.

Consider `CC(=O)C1=C(C)NC(C)=C(C(=O)OCc2ccccc2)C1c1csc2ccccc12` (stereo not shown) [Example B6, Benzyl 5-acetyl-4-(benzo[b]thiophen-3-yl)-2,6-dimethyl-1,4-dihydro-pyridine-3-carboxylate], for which the IC50 in test [1] is not below 1000 nM; in test [2], 100 to 1000 nM.
With `CC(=O)C1=C(C)NC(C)=C(C(=O)OCC2CCOCC2)C1c1csc2ccccc12` (stereo not shown) [Example C2, (Tetrahydro-2H-pyran-4-yl)methyl 5-acetyl-4-(benzo[b]thiophen-3-yl)-2,6-dimethyl-1,4-dihydropyridine-3-carboxylate], the IC50 in test [1] was not below 1000 nM; in test [2], 100 to 1000 nM.
The corresponding values for `CC(=O)C1=C(C)NC(C)=C(C(=O)OCC2CC2)C1c1csc2ncccc12` (stereo not shown) [Example C24, Cyclopropylmethyl 5-acetyl-2,6-dimethyl-4-(thieno[2,3-b]pyridin-3-yl)-1,4-dihydropyridine-3-carboxylate] are less than 100 nM and less than 100 nM.
As for `CC(=O)C1=C(C)NC(C)=C(C(=O)OC2CCCCC2)C1c1csc2ncccc12` (stereo not shown) [Example C36, Cyclohexyl 5-acetyl-2,6-dimethyl-4-(thieno[2,3-b]pyridin-3-yl)-1,4-dihydropyridine-3-carboxylate], the IC50 was 100 to 1000 nM in test [1] and less than 100 nM in test [2].
For `CC(=O)C1=C(C)NC(C)=C(C(=O)OCc2ccccc2)C1c1csc2ncccc12` (stereo not shown) [Example C39, Benzyl 5-acetyl-2,6-dimethyl-4-(thieno[2,3-b]pyridin-3-yl)-1,4-dihydropyridine-3-carboxylate], the results for the IC50 in test [1] and in test [2] were 100 to 1000 nM and less than 100 nM, respectively.
Turning to `CC(=O)C1=C(C)NC(C)=C(C(=O)OCc2ccccc2)C1c1csc2ccc(F)cc12` (stereo not shown) [Example C41, Benzyl 5-acetyl-4-(5-fluorobenzo[b]thiophen-3-yl)-2,6-dimethyl-1,4-dihydropyridine-3-carboxylate], the IC50 was not below 1000 nM in test [1] and 100 to 1000 nM in test [2].
For `CC(=O)C1=C(C)NC(C)=C(C(=O)OCc2ccccc2)C1c1csc2ccc(Cl)cc12` (stereo not shown) [Example C42, Benzyl 5-acetyl-4-(5-chlorobenzo[b]thiophen-3-yl)-2,6-dimethyl-1,4-dihydropyridine-3-carboxylate], the IC50 in test [1] is not below 1000 nM; in test [2], less than 100 nM.
For the molecule `CC(=O)C1=C(C)NC(C)=C(C(=O)OCC2CCOCC2)C1c1csc2ccc(Cl)cc12` (stereo not shown) [Example C43, (Tetrahydro-2H-pyran-4-yl)methyl 5-acetyl-4-(5-chlorobenzo[b]thiophen-3-yl)-2,6-dimethyl-1,4-dihydropyridine-3-carboxylate], the IC50 in test [1] is not below 1000 nM; in test [2], 100 to 1000 nM.
Turning to `CC(=O)C1=C(C)NC(C)=C(C(=O)OCC2CCOCC2)C1c1csc2ccc(F)cc12` (stereo not shown) [Example C44, (Tetrahydro-2H-pyran-4-yl)methyl 5-acetyl-4-(5-fluorobenzo[b]thiophen-3-yl)-2,6-dimethyl-1,4-dihydropyridine-3-carboxylate], the IC50 in test [1] is not below 1000 nM; in test [2], 100 to 1000 nM.
The like results for `CC(=O)C1=C(C)NC(C)=C(C(=O)OCc2ccncc2)C1c1csc2ccc(F)cc12` (stereo not shown) [Example C46, Pyridin-4-ylmethyl 5-acetyl-4-(5-fluorobenzo[b]thiophen-3-yl)-2,6-dimethyl-1,4-dihydropyridine-3-carboxylate] were, in that order, 100 to 1000 nM and less than 100 nM.
The corresponding values for `CC(=O)C1=C(C)NC(C)=C(C(=O)OCc2cccnc2)C1c1csc2ccccc12` (stereo not shown) [Example C48, Pyridin-3-ylmethyl 5-acetyl-4-(benzo[b]thiophen-3-yl)-2,6-dimethyl-1,4-dihydropyridine-3-carboxylate] are not below 1000 nM and 100 to 1000 nM.
As for `CC(=O)C1=C(C)NC(C)=C(C(=O)OCc2cccnc2)C1c1csc2c(Br)cccc12` (stereo not shown) [Example C58, Pyridin-3-ylmethyl 5-acetyl-4-(7-bromobenzo[b]thiophen-3-yl)-2,6-dimethyl-1,4-dihydropyridine-3-carboxylate], the IC50 in test [1] and in test [2] was less than 100 nM in each case.
`CC(=O)C1=C(C)NC(C)=C(C(=O)OCc2ccc(Br)cc2)C1c1csc2ncccc12` (stereo not shown) [Example C65, 4-bromobenzyl 5-acetyl-2,6-dimethyl-4-(thieno[2,3-b]pyridin-3-yl)-1,4-dihydropyridine-3-carboxylate]: the IC50 in test [1] was not below 1000 nM; in test [2], less than 100 nM.
The corresponding values for `CC(=O)C1=C(C)NC(C)=C(C(=O)OCc2cccc(Br)c2)C1c1csc2ncccc12` (stereo not shown) [Example C66, 3-bromobenzyl 5-acetyl-2,6-dimethyl-4-(thieno[2,3-b]pyridin-3-yl)-1,4-dihydropyridine-3-carboxylate] are 100 to 1000 nM and less than 100 nM.
For the molecule `CC(=O)C1=C(C)NC(C)=C(C(=O)OCc2ccccc2Br)C1c1csc2ncccc12` (stereo not shown) [Example C67, 2-bromobenzyl 5-acetyl-2,6-dimethyl-4-(thieno[2,3-b]pyridin-3-yl)-1,4-dihydropyridine-3-carboxylate], the IC50 in test [1] and in test [2] was less than 100 nM throughout.
Consider `CC(=O)C1=C(C)NC(C)=C(C(=O)OC(C)(C)c2ccccc2)C1c1csc2ncccc12` (stereo not shown) [Example C71, 2-phenylpropan-2-yl 5-acetyl-2,6-dimethyl-4-(thieno[2,3-b]pyridin-3-yl)-1,4-dihydropyridine-3-carboxylate], for which the IC50 is not below 1000 nM in test [1] and less than 100 nM in test [2].
The corresponding values for `CC(=O)C1=C(C)NC(C)=C(C(=O)OCc2cccc(C#N)c2)C1c1csc2ncccc12` (stereo not shown) [Example C72, 3-Cyanobenzyl 5-acetyl-2,6-dimethyl-4-(thieno[2,3-b]pyridin-3-yl)-1,4-dihydropyridine-3-carboxylate] are not below 1000 nM and less than 100 nM.
Regarding `CC(=O)C1=C(C)NC(C)=C(C(=O)OCc2ccc(C#N)cc2)C1c1csc2ncccc12` (stereo not shown) [Example C73, 4-cyanobenzyl 5-acetyl-2,6-dimethyl-4-(thieno[2,3-b]pyridin-3-yl)-1,4-dihydropyridine-3-carboxylate], the values for the IC50 in test [1] and in test [2] were not below 1000 nM and less than 100 nM, respectively.
`COC(=O)C1=C(C=O)NC(C2CC2)=C(C(=O)OC)C1c1csc2c(C#N)cccc12` (stereo not shown) [Example C117, Dimethyl 4-(7-cyanobenzo[b]thiophen-3-yl)-2-cyclopropyl-6-formyl-1,4-dihydropyridine-3,5-dicarboxylate]: the IC50 is 100 to 1000 nM in test [1] and less than 100 nM in test [2].
With `COC(=O)C1=C(CO)NC(C2CC2)=C(C(=O)OC)C1c1csc2c(C#N)cccc12` (stereo not shown) [Example C118, Dimethyl 4-(7-cyanobenzo[b]thiophen-3-yl)-2-cyclopropyl-6-(hydroxymethyl)-1,4-dihydropyridine-3,5-dicarboxylate], the IC50 in test [1] and in test [2] was less than 100 nM throughout.
